Test results from patent publication US9499492B2, “4-(ortho)-fluorophenyl-5-fluoropyrimidin-2-yl amines containing a sulfoximine group” (BAYER PHARMA AKTIENGESELLSCHAFT, priority 2012, dated 2016).
pIC50: −log10 of the molar value. Where two headings read alike, the source gives them in different places.

Tests used:
[1] = test system: HeLa, human cervical tumour cells; test: Proliferation assay, HeLa (Method 3); format: cell-based; conditions: 4 days, crystal violet, read-out: Inhibition of HeLa cell proliferation IC50
Experimental: (§1) After 24 hours, the cells of one plate (zero-point plate) were stained with crystal violet (see below), while the medium of the other plates was replaced by fresh culture medium (200 μl), to which the test substances were added in various concentrations (0 μM, as well as in the range of 0.001-10 μM; the final concentration of the solvent dimethyl sulfoxide was 0.5%). The cells were incubated for 4 days in the presence of test substances. Cell proliferation was determined by staining the cells with crystal violet: the cells were fixed by adding 20 μl/measuring point of an 11% glutaric aldehyde solution for 15 minutes at room temperature. After three washing cycles of the fixed cells with water, the plates were dried at room temperature. The cells were stained by adding 100 μl/measuring point of a 0.1% crystal violet solution (pH 3.0). After three washing cycles of the stained cells with water, the plates were dried at room temperature. The dye was dissolved by adding 100 μl/measuring point of a 10% acetic acid solution. The extinction was determined by photometry at a wavelength of 595 nm. The change of cell number, in percent, was calculated by normalization of the measured values to the extinction values of the zero-point plate (=0%) and the extinction of the untreated (0 μm) cells (=100%).

CDK2/CycE = CDK2/CycE (Homo sapiens (Human), UniProt P24941); test: CDK2/CycE kinase assay (Method 2); format: biochemical; conditions: 10 μM ATP
Description: 2. CDK2/CycE Kinase Assay:
CDK2/CycE-inhibitory activity of compounds of the present invention was quantified employing the CDK2/CycE TR-FRET assay as described in the following paragraphs:
Recombinant fusion proteins of GST and human CDK2 and of GST and human CycE, expressed in insect cells (Sf9) and purified by Glutathion-Sepharose affinity chromatography, were purchased from ProQinase GmbH (Freiburg, Germany). As substrate for the kinase reaction biotinylated peptide biotin-Ttds-[…] (C-terminus in amid form) was used which can be purchased e.g. form the company JERINI Peptide Technologies (Berlin, Germany).
(§2) For the assay 50 nl of a 100 fold concentrated solution of the test compound in DMSO was pipetted into a black low volume 384 well microtiter plate (Greiner Bio-One, Frickenhausen, Germany), 2 μl of a solution of CDK2/CycE in aqueous assay buffer [50 mM Tris/HCl pH 8.0, 10 mM MgCl2, 1.0 mM dithiothreitol, 0.1 mM sodium ortho-vanadate, 0.01% (v/v) Nonidet-P40 (Sigma)] were added and the mixture was incubated for 15 min at 22° C. to allow pre-binding of the test compounds to the enzyme before the start of the kinase reaction. […] The concentration of CDK2/CycE was adjusted depending of the activity of the enzyme lot and was chosen appropriate to have the assay in the linear range, typical concentrations were in the range of 130 ng/ml.
(§3) The resulting mixture was incubated 1 h at 22° C. to allow the formation of complex between the phosphorylated biotinylated peptide and the detection reagents. Subsequently the amount of phosphorylated substrate was evaluated by measurement of the resonance energy transfer from the Eu-chelate to the streptavidine-XL. Therefore, the fluorescence emissions at 620 nm and 665 nm after excitation at 350 nm was measured in a TR-FRET reader, e.g. a Rubystar (BMG Labtechnologies, Offenburg, Germany) or a Viewlux (Perkin-Elmer). The ratio of the emissions at 665 nm and at 622 nm was taken as the measure for the amount of phosphorylated substrate.

[2] = test system: A2780, human ovarian carcinoma cells; test: Proliferation assay, A2780 (Method 3); format: cell-based; conditions: A2780, 4 days, crystal violet, read-out: Inhibition of A2780 cell proliferation IC50
Experimental: as §1

CDK9/CycT1 [3] = molecular target: T1, CDK9/CycT1 (Homo sapiens (Human), UniProt P50750); test: CDK9/CycT1 kinase assay (Method 1a); format: biochemical; conditions: for pIC50: 10 μM ATP; for Selectivity CDK9/CDK2: derived from Methods 1a. and 2.
Description: 1a. CDK9/CycT1 Kinase Assay:
CDK9/CycT1-inhibitory activity of compounds of the present invention was quantified employing the CDK9/CycT1 TR-FRET assay as described in the following paragraphs:
(§4) Recombinant full-length His-tagged human CDK9 and CycT1, expressed in insect cells and purified by Ni-NTA affinity chromatography, were purchased from Invitrogen (Cat. No PV4131). As substrate for the kinase reaction biotinylated peptide biotin-Ttds-[…] (C-terminus in amid form) was used which can be purchased e.g. form the company JERINI Peptide Technologies (Berlin, Germany).
as §2, with “CDK9/CycT1” for “CDK2/CycE”, “1 μg/ml.” for “130 ng/ml.”
as §3, with “HTRF” for “TR-FRET”

CDK9/CycT1 [4] = molecular target: T1, CDK9/CycT1; test: CDK9/CycT1 high ATP kinase assay (Method 1b); format: biochemical; conditions: 2 mM ATP
Experimental: 1b. CDK9/CycT1 High ATP Kinase Assay
CDK9/CycT1-inhibitory activity of compounds of the present invention at a high ATP concentration after preincubation of enzyme and test compounds was quantified employing the CDK9/CycT1 TR-FRET assay as described in the following paragraphs.
as §4, with “were purchase” for “were purchased”, “JERINI peptide technologies” for “JERINI Peptide Technologies”
as §2, with “CDK9/CycT1” for “CDK2/CycE”, “0.5 μg/ml.” for “130 ng/ml.”
as §3, with “HTRF” for “TR-FRET”

T1 sequence (P50750 whole entry): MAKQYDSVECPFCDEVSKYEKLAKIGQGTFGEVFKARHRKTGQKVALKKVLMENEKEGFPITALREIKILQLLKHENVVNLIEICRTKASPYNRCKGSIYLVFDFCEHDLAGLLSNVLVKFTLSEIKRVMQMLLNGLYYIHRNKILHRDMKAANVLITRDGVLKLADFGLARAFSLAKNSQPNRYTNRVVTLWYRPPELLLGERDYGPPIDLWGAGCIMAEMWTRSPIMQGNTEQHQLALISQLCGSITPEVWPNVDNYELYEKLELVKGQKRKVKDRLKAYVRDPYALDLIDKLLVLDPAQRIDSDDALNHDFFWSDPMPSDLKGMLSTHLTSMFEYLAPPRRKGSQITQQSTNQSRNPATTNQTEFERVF
T1 sequence (O60563 whole entry partner): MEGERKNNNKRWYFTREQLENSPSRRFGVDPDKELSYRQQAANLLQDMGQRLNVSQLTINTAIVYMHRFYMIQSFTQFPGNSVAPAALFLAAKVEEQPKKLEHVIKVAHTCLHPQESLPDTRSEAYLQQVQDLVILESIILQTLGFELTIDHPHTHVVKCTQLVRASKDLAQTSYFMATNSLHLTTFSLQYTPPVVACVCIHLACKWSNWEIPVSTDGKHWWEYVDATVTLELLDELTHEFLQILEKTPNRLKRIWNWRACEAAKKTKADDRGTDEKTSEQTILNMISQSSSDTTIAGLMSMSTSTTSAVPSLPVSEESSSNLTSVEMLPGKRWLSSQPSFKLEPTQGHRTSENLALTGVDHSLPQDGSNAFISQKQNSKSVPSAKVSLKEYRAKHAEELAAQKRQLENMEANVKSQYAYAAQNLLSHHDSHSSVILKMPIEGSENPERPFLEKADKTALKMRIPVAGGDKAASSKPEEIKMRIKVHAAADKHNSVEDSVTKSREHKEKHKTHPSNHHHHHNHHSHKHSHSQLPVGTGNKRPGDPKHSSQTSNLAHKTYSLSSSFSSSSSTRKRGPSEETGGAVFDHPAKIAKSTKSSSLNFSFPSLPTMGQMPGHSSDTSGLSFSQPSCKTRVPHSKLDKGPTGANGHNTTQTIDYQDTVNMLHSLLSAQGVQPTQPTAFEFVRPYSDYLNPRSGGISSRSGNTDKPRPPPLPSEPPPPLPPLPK

Compound	pIC50 ([1]; Homo sapiens, 96 h)	pIC50 (CDK2/CycE)	pIC50 ([2]; Homo sapiens, A2780, 96 h)	further results
CCOC(=O)N=S(C)(=O)Cc1cccc(Nc2ncc(F)c(-c3ccc(F)cc3F)n2)c1 (racemic) [Example 8, (rac)-Ethyl[(3-{[4-(2,4-difluorophenyl)-5-fluoropyrimidin-2-yl]amino}benzyl)(methyl)oxido-λ^6-sulfanylidene]carbamate]	5.35	6.25		
CS(=O)(Cc1cc(F)cc(Nc2ncc(F)c(-c3ccc(F)cc3F)n2)c1)=NC#N (racemic) [Example 10, (rac)-[(3-{[4-(2,4-Difluorophenyl)-5-fluoropyrimidin-2-yl]amino}-5-fluorobenzyl)(methyl)oxido-λ^6-sulfanylidene]cyanamide]	5.98	6.24	6.37	
CS(=N)(=O)Cc1cc(F)cc(Nc2ncc(F)c(-c3ccc(F)cc3F)n2)c1 (racemic) [Example 11, (rac)-4-(2,4-Difluorophenyl)-5-fluoro-N-{3-fluoro-5-[(S-methylsulfonimidoyl)methyl]phenyl}pyrimidin-2-amine]	5.88		6.05	
Cc1cc(CS(C)(=O)=NC#N)cc(Nc2ncc(F)c(-c3ccc(F)cc3F)n2)c1 (racemic) [Example 16, (rac)-[(3-{[4-(2,4-Difluorophenyl)-5-fluoropyrimidin-2-yl]amino}-5-methylbenzyl)(methyl)oxido-λ^6-sulfanylidene]cyanamide]	6.07	6.33	6.52	
CS(=N)(=O)Cc1cc(Br)cc(Nc2ncc(F)c(-c3ccc(F)cc3F)n2)c1 (racemic) [Example 19, (rac)-N-{3-Bromo-5-[(S-methylsulfonimidoyl)methyl]phenyl}-4-(2,4-difluorophenyl)-5-fluoropyrimidin-2-amine]	5.80	6.42		pIC50 (CDK9/CycT1 [3]): 7.89; Selectivity CDK9/CDK2 (CDK9/CycT1 [3]): 30
COc1cc(CS(C)(=N)=O)cc(Nc2ncc(F)c(-c3ccc(F)cc3F)n2)c1 (racemic) [Example 21, (rac)-4-(2,4-Difluorophenyl)-5-fluoro-N-{3-methoxy-5-[(S-methylsulfonimidoyl)methyl]phenyl}pyrimidin-2-amine]	6.11			
CS(=N)(=O)Cc1cc(F)cc(Nc2ncc(F)c(-c3ccc(F)cc3F)n2)c1 (single isomer, unassigned) [Example 12, 4-(2,4-Difluorophenyl)-5-fluoro-N-{3-fluoro-5-[(S-methylsulfonimidoyl)methyl]phenyl}pyrimidin-2-amine]	5.71	5.77	< 6.00	
CS(=N)(=O)Cc1cc(F)cc(Nc2ncc(F)c(-c3ccc(F)cc3F)n2)c1 (single isomer, unassigned) [Example 13, 4-(2,4-Difluorophenyl)-5-fluoro-N-{3-fluoro-5-[(S-methylsulfonimidoyl)methyl]phenyl}pyrimidin-2-amine]		6.14		pIC50 [2]: < 6.00; pIC50 [1]: 5.75
N=S(=O)(CCN)Cc1cc(Nc2ncc(F)c(-c3ccc(F)cc3F)n2)cc(C(F)(F)F)c1 (single isomer, unassigned) [Example 26, N-[3-{[S-(2-Aminoethyl)sulfonimidoyl]methyl}-5-(trifluoromethyl)phenyl]-4-(2,4-difluorophenyl)-5-fluoropyrimidin-2-amine]		5.89		pIC50 (CDK9/CycT1 [4]): 6.56
Cc1cc(CS(C)(=O)=NC#N)cc(Nc2ncc(F)c(-c3ccc(F)cc3F)n2)c1 (single isomer, unassigned) [Example 35, [(3-{[4-(2,4-Difluorophenyl)-5-fluoro-pyrimidin-2-yl]amino}-5-methylbenzyl)-(methyl)oxido-λ^6-sulfanylidene]cyanamide]		6.41	6.49	pIC50 [1]: 6.34
Cc1cc(CS(C)(=O)=NC#N)cc(Nc2ncc(F)c(-c3ccc(F)cc3F)n2)c1 (single isomer, unassigned) [Example 36, [(3-{[4-(2,4-Difluorophenyl)-5-fluoro-pyrimidin-2-yl]amino}-5-methylbenzyl)-(methyl)oxido-λ^6-sulfanylidene]cyanamide]		6.40		pIC50 [2]: 6.47; pIC50 [1]: 5.99
CS(=O)(Cc1cc(Br)cc(Nc2ncc(F)c(-c3ccc(F)cc3F)n2)c1)=NC#N (single isomer, unassigned) [Example 39, [(3-Bromo-5-{[4-(2,4-difluorophenyl)-5-fluoropyrimidin-2-yl]amino}benzyl)(methyl)oxido-λ^6-sulfanylidene]cyanamide]	5.97	6.37	6.21	
CS(=O)(Cc1cc(Br)cc(Nc2ncc(F)c(-c3ccc(F)cc3F)n2)c1)=NC#N (single isomer, unassigned) [Example 40, [(3-Bromo-5-{[4-(2,4-difluorophenyl)-5-fluoropyrimidin-2-yl]amino}benzyl)(methyl)oxido-λ^6-sulfanylidene]cyanamide]		6.99		pIC50 [2]: 6.43; pIC50 [1]: 6.16
CS(=N)(=O)Cc1cc(Br)cc(Nc2ncc(F)c(-c3ccc(F)cc3F)n2)c1 (single isomer, unassigned) [Example 41, N-{3-Bromo-5-[(S-methylsulfonimidoyl)methyl]phenyl}-4-(2,4-difluorophenyl)-5-fluoropyrimidin-2-amine]		6.29		pIC50 (CDK9/CycT1 [3]): 7.74; Selectivity CDK9/CDK2 (CDK9/CycT1 [3]): 28
